In this test the test system is U373 MG. The test is described as follows: Antimitotic activity against human glioma line U-373 cell by measuring the incorporation of [3H]thymidine in cultures of the cells. The test is classed as functional, cell-based, U-373MG ATCC.

pIC50: −log10 of the molar value.

In general, pIC50 refers to the negative decadic logarithm of the IC50, by convention in mol/L. A high value points to a low IC50. For `CCCCCCCCO[C@H]1O[C@@H](COCC(CO)(CO)CO)[C@@H](O)[C@H](O)[C@@H]1NC(C)=O`, the pIC50 is 4.37.

The record behind these values is ChEMBL document CHEMBL1136749, “Central neural tumor destruction by controlled release of a synthetic glycoside dispersed in a biodegradable polymeric matrix” (J Med Chem, 2003).
